The term Kd denotes a measure of binding affinity in units of concentration. A word on the Ki: it is a dissociation constant, usually derived from enzyme kinetics or from competition with a known ligand. Read a low Ki as higher affinity.

The structures appear in SMILES notation.

Assay [1] deals with T1, Or43a receptor (Drosophila melanogaster, UniProt P81917, L154V).
T1 construct: His (from vector pAc5.1/V5-His B) (C); expressed in transfected cells
The assay is described as follows: biochemical. The assay is classed as binding. The method, then:
To address whether Or83b receptor and Or43a receptor contain a specific binding site for tyramine, membranes expressing Or83b receptor or Or43a receptor are prepared from cells expressing either receptor, as described above, and used for competitive binding with ^3H-tyramine. The binding assay protocol is exactly as described for cells expressing TyrR, as described above.

The target in assay [2] is T1, Or43a receptor. The assay is described as follows: Intracellular Ca^2+ mobilization in Schneider cells expressing Or43a receptor. It counts as cell-based.
In the next assay the target is T2, tyramine receptor (TyrR) (Drosophila melanogaster, UniProt P22270).
T2 sequence (P22270 27-601): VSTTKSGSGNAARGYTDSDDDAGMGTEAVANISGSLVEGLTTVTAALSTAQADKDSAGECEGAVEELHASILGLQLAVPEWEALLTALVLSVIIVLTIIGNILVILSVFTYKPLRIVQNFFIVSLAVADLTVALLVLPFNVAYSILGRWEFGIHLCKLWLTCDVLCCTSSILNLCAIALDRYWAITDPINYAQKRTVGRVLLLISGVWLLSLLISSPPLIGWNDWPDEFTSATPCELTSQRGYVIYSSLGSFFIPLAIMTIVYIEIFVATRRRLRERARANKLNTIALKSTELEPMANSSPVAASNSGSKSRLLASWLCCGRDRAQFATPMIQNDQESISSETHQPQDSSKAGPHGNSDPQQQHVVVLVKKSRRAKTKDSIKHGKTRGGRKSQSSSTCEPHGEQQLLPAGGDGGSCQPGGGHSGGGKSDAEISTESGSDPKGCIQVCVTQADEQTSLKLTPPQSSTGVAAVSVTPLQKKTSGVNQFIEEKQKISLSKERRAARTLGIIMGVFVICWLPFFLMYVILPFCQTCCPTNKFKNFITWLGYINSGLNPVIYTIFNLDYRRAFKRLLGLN
In words: cAMP levels in Schneider cells expressing tyramine receptor. The assay is classed as cell-based. Also on record: oligonucleotides that are used to amplify the open reading frame of the Drosophila tyramine receptor (TyrR); expressed in transfected cells. The protocol: Cells are grown on dishes and the media changed the day before the treatment. When cells are approximately 95% confluent, media is aspirated and the cells are washed one time with about 5 mL of about 27° C. insect saline (170 mM NaCl, 6.0 mM KCl, 2.0 mM NaHCO3, 17.0 mM glucose, 6.0 mM NaH2PO4, 2.0 mM CaCl2, 4.0 mM MgCl2; pH 7.0). About 20 mL of insect saline is added, and cells are harvested by gentle scraping. An aliquot of the cells is counted by hemocytometer, and the cells are then centrifuged for about 5 minutes at about 1000 RPM. Cells are resuspended to give about 3×10^6 cells per mL. IBMX is added to about 200 μM. Then about 1 mL of cell suspension is aliquoted for treatment. Forskolin (cAMP inducing agent), tyramine or different composition candidates are added, and the cells are incubated at about 27° C. for about 10 minutes.
Treated cells are centrifuged at about 13000 g for about 10 seconds. The solution is aspirated and about 1 mL of about −20° C. 70% ethanol is added. The cell pellet is disrupted by vortexing and the samples placed at about −20° C. overnight. Following the ethanol extraction, cellular debris is pelleted by centrifugation at about 13000 g for about 5 minutes. The supernatant is transferred to a tube and lyophilized to dryness in a rotary speed-vac. […]
The cAMP assay is based on competition binding between endogenous cAMP and ^3H-cAMP to a cAMP binding protein. […] About 200 μL of the reaction mixture is removed and levels of ^3H-cAMP are determined by scintillation counting. Levels of endogenous cAMP from the cells are calculated using a standard curve with cold cAMP ranging from about 0 to 16 pmol per reaction.
To examine test chemical-dependent coupling of the tyramine receptor, pAcB-TyrR is stably expressed in Schneider cells. Transfected and untransfected cells are treated with tyramine (about 10 μM), LFO (about 25 μg/ml) and BSO (about 25 μg/ml) in the presence and absence of forskolin (FK) (about 10 μM). cAMP production is measured using the ^3H-cAMP assay kit (Amersham) as described above.

T1 sequence (P81917 whole entry L154V): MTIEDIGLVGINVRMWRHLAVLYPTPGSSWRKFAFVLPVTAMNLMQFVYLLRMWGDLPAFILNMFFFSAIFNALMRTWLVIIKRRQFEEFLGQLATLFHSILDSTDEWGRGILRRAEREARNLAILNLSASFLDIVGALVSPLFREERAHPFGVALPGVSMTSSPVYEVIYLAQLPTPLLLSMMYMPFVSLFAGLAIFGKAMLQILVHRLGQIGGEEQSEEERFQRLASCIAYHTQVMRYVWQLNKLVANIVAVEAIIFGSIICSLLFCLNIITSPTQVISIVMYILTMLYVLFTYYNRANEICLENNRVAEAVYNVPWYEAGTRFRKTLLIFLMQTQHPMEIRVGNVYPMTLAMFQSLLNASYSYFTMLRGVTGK

As to `NCCc1ccc(O)cc1` [tyramine], at Or43a receptor [1], the Kd is around 0.0135 µM and affinity was put at a Ki of 0.0135 µM. On Or43a receptor [2] (before vs approximately 150 seconds after treatment), the “change in intracellular Ca^2+ levels (340/380 fluorescence ratio)” value was “only negligibly”. In addition, at Or43a receptor [2] (ionomycin about 2 μM, tyramine about 10 μM), the “increase in intracellular calcium” value is on record as around 3.5 fold. At tyramine receptor (TyrR) (forskolin about 10 μM), the “effect on cAMP in the presence of forskolin” value is on record as “significantly antagonizes forskolin-stimulated cAMP levels”. In addition, the “decrease in cAMP level” value at tyramine receptor (TyrR) (tyramine about 10 μM, LFO and BSO about 25 μg/ml, without forskolin) is listed as “about 10%”.
